ChEMBL document CHEMBL3217482, “Synthesis and biological evaluation of novel 1-aryl, 5-(phenoxy-substituted)aryl-1,4-pentadien-3-one derivatives” (Medchemcomm, 2011)

Assays:
PC-3 [1] = experiment: Antiproliferative against human PC3 cells assessed as growth inhibition at 1 uM after 72 hrs by MTT assay relative to control; type: functional; settings: PC-3, 72 h, read-out: GI
[2] = Antiproliferative against human BGC823 cells assessed as growth inhibition at 1 uM after 72 hrs by MTT assay relative to control; type: functional; settings: BGC-823, 72 h, read-out: GI
[3] = Antiproliferative against human BGC823 cells assessed as growth inhibition at 10 uM after 72 hrs by MTT assay relative to control; type: functional; settings: BGC-823, 72 h, read-out: GI
Bcap37 [4] = experiment: Antiproliferative against human Bcap37 cells assessed as growth inhibition at 1 uM after 72 hrs by MTT assay relative to control; type: functional; settings: Bcap37, 72 h, read-out: GI
[5] = Antiproliferative against human BGC823 cells assessed as growth inhibition after 72 hrs by MTT assay; type: functional, cell-based; settings: BGC-823, 72 h
Bcap37 [6] = experiment: Antiproliferative against human Bcap37 cells assessed as growth inhibition after 72 hrs by MTT assay; type: functional, cell-based; settings: Bcap37, 72 h
PC-3 [7] = experiment: Antiproliferative against human PC3 cells assessed as growth inhibition at 10 uM after 72 hrs by MTT assay relative to control; type: functional; settings: PC-3, 72 h, read-out: GI
Bcap37 [8] = experiment: Antiproliferative against human Bcap37 cells assessed as growth inhibition at 10 uM after 72 hrs by MTT assay relative to control; type: functional; settings: Bcap37, 72 h, read-out: GI

Row | Structure (SMILES) | inhibition of growth at 1 µM (PC-3 [1]) [%] | inhibition of growth at 1 µM [2] [%] | inhibition of growth at 10 µM [3] [%] | inhibition of growth at 1 µM (Bcap37 [4]) [%] | IC50 [5] [nM] | IC50 (Bcap37 [6]) [nM] | inhibition of growth at 10 µM (PC-3 [7]) [%] | inhibition of growth at 10 µM (Bcap37 [8]) [%]
1 | COc1cccc2c1C(=O)c1c(O)c3c(c(O)c1C2=O)C[C@@](O)(C(=O)CO)C[C@@H]3O[C@H]1C[C@H](N)[C@H](O)[C@H](C)O1 [DOXORUBICIN] | 88.2 | 90.7 | 95.9 | 84.2 | 2600 | 2000 | 94.7 | 93.1
2 | CC[C@@]1(O)C(=O)OCc2c1cc1n(c2=O)Cc2cc3cc(O)ccc3nc2-1 [HYDROXYCAMPTOTHECIN] | 17.1 | 7.3 | 26.5 | 8.8 | – | – | 37 | 33.5
